From patent US11541059B2, “Heterocyclic compounds and uses thereof” (Infinity Pharmaceuticals, Inc., priority 2014, dated 2023)
Like-named read-outs stand apart in the source and are kept apart here. Blank lines part the entries; values can stand above or below the compound they belong to.

Assays:
PI3K γ = PI3K γ (Homo sapiens (Human), UniProt P48736); assay: PI3-Kinase Promega ADP-Glo Max assay; assay type: biochemical
[1] = target: PI3K-γ in RAW264.7 macrophages (Mus musculus (Mouse), UniProt Q9JHG7); assay: Raw264.7 p110 γ assay (phospho-AKT, C5a stimulated); assay type: cell-based
LLC tumor = LLC tumor brei model with or without cyclophosphamide; assay type: in vivo, mouse; conditions: BB 15 mg/kg QD PO; cyclophosphamide 50 mg/kg EOD IP, FIG. 48
human T cells = assay: Concanavalin A-induced model for activation of human T cells (IFN-γ); assay type: cell-based; conditions: isoform selective concentrations
[2] = test system: LPS induced neutrophil influx in BALF; assay: LPS-induced neutrophilia, oral administration; assay type: in vivo; conditions: rat, p.o., 4 hours post-LPS challenge
Excerpt: (§1) This study also includes assessment of the exposure to the compounds in plasma and lung tissues.

[3] = Oral PK in the rat LPS studies (free plasma concentration); assay type: in vivo; conditions: p.o. 0.2 mg/kg
Excerpt: as §1

[4] = test system: CXCL12 induced p-AKT in M1 polarized macrophage; assay: CXCL12-induced p-AKT induction assay, M1 polarized macrophages; assay type: cell-based, mouse
Excerpt: (§2) Long bones from young C57B6 mice were harvested and bone marrow was extruded by gentle lavage of the bone marrow cavities with a 28 guage needle. Red blood cells were removed using red blood cell lysis buffer (Sigma). Bone marrow cells were differentiated to macrophages using MCSF for 6 days (RPMI and 20% FCS) with one media change (with removal of all non-adherent cells) at day 3. Macrophages were polarized into M0 (MCSF), M1 (MCSF, IFNγ, and LPS for 1 day), or M2 (MCSF, IL4 for 2 days).
(§3) CXCL12-induced p-AKT induction assay: Polarized macrophages were lifted with Acutase, and plated at 0.5M cells per well (0.5 ml) in a deep well (2 ml) non adherant plate in polarization media for 1 hour. […] CXCL12 was added, and the cells were mixed on a plate shaker for 2 minutes. 1 ml of 37 degree FACS Lyse/fix buffer (BD bioscience) was added and the plate was mixed for 1 minute. The plates were spun and decanted and frozen at −80° C. Phospho AKT staining with anti Phospho AKT 473 PERCP labeled (Cell Signaling Technologies) was performed and measured by flow cytometry. Total cell MFI was used to calculate the effect of tested compound on CXCL12 induction of phospho AKT.

[5] = test system: CXCL12 induced p-AKT in M2 polarized macrophage; assay: CXCL12-induced p-AKT induction assay, M2 polarized macrophages; assay type: cell-based, mouse
Excerpt: as §2, §3

[6] = Pharmacokinetics of Compound 88, oral; assay type: in vivo, mouse; conditions: female C57 mice
Procedure: A similar study was carried out using Compound 88. […] Below is a table that details the results for Compound 88: […]

PI3K α = PI3K α (Homo sapiens (Human), UniProt P42336); assay: PI3-Kinase Promega ADP-Glo Max assay; assay type: biochemical
PI3K β = PI3K β (Homo sapiens (Human), UniProt P42338); assay: PI3-Kinase Promega ADP-Glo Max assay; assay type: biochemical
PI3K δ = PI3K δ (Homo sapiens (Human), UniProt O00329); assay: PI3-Kinase Promega ADP-Glo Max assay; assay type: biochemical
PI3K-δ in RAJI cells = PI3K-δ in RAJI cells (Homo sapiens (Human), UniProt O00329); assay: RAJI p110 δ assay (phospho-AKT, anti-human IgM stimulated); assay type: cell-based
PI3K-δ in RAJI cells, sequence (O00329 whole entry): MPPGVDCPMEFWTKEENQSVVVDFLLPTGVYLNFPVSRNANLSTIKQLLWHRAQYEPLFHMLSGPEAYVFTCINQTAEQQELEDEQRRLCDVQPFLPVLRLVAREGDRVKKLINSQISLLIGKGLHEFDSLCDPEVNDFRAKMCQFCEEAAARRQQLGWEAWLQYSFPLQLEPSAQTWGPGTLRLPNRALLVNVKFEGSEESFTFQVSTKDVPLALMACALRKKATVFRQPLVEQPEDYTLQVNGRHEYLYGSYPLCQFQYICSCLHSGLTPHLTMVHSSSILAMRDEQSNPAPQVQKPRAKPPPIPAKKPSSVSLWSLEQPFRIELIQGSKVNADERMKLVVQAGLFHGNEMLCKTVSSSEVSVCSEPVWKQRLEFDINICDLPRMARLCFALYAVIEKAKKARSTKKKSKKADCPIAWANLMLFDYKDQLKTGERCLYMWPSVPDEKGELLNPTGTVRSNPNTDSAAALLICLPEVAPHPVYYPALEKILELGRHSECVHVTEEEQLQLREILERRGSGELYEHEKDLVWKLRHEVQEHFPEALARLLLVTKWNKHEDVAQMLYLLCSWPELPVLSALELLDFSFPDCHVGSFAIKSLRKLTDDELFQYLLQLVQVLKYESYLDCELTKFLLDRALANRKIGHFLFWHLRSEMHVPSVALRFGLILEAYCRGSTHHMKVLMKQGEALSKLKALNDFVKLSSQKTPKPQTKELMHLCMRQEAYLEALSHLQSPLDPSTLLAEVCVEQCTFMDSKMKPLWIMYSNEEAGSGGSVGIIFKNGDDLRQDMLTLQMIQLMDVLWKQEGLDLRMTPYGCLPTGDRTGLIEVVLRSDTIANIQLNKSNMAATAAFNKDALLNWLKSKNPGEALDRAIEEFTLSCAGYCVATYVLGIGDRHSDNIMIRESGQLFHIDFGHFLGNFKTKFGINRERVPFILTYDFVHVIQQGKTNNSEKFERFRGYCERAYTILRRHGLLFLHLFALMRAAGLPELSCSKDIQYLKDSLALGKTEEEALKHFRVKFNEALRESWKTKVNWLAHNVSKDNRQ
PI3K-δ in RAJI cells, sequence (P27986 whole entry partner): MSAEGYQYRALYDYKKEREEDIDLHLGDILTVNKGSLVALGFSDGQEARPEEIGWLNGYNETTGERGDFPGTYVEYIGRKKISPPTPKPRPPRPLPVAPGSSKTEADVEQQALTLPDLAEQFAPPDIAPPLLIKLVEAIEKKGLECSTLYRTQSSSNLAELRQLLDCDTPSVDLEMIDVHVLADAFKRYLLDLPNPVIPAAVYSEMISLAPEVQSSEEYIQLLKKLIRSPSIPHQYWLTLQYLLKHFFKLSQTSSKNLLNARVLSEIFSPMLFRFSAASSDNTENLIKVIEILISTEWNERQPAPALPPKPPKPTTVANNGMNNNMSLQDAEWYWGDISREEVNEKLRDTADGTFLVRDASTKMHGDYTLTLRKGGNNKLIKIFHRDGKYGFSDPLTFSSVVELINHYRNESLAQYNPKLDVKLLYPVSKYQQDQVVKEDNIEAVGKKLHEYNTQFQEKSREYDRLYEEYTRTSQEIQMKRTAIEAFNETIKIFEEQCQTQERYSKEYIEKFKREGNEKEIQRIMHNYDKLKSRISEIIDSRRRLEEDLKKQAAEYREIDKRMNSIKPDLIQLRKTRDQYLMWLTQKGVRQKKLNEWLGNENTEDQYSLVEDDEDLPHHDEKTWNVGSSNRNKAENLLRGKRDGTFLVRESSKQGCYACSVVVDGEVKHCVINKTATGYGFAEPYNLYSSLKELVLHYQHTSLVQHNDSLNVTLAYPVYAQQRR

PI3K γ, sequence (P48736 whole entry): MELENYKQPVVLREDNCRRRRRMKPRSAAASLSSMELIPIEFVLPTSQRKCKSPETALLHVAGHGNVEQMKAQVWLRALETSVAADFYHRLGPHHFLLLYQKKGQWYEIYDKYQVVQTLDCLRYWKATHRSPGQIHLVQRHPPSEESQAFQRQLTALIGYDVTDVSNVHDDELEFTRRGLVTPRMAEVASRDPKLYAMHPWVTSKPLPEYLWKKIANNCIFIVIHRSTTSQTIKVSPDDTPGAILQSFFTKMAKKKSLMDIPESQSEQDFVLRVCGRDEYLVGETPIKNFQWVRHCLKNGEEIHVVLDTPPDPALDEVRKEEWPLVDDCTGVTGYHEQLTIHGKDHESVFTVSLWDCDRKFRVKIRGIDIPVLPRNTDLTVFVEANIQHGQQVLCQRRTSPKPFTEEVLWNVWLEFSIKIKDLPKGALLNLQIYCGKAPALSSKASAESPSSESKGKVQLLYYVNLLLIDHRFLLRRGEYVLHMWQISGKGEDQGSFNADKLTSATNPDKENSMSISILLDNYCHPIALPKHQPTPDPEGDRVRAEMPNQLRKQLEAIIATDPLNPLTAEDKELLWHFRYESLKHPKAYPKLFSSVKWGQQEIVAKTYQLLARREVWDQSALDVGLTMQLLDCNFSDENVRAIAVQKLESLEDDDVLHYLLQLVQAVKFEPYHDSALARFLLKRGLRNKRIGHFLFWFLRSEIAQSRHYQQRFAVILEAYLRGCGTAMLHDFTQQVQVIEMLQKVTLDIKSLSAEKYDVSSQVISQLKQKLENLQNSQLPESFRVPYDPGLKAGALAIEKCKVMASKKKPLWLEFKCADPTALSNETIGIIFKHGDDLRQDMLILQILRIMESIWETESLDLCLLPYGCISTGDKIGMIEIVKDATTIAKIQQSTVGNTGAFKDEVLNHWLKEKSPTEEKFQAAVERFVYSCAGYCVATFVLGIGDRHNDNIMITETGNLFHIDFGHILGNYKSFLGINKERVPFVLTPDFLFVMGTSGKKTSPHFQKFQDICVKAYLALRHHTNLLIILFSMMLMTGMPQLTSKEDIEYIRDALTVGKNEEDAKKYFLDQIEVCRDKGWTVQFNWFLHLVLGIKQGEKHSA
PI3K-γ in RAW264.7 macrophages, sequence (Q9JHG7 whole entry): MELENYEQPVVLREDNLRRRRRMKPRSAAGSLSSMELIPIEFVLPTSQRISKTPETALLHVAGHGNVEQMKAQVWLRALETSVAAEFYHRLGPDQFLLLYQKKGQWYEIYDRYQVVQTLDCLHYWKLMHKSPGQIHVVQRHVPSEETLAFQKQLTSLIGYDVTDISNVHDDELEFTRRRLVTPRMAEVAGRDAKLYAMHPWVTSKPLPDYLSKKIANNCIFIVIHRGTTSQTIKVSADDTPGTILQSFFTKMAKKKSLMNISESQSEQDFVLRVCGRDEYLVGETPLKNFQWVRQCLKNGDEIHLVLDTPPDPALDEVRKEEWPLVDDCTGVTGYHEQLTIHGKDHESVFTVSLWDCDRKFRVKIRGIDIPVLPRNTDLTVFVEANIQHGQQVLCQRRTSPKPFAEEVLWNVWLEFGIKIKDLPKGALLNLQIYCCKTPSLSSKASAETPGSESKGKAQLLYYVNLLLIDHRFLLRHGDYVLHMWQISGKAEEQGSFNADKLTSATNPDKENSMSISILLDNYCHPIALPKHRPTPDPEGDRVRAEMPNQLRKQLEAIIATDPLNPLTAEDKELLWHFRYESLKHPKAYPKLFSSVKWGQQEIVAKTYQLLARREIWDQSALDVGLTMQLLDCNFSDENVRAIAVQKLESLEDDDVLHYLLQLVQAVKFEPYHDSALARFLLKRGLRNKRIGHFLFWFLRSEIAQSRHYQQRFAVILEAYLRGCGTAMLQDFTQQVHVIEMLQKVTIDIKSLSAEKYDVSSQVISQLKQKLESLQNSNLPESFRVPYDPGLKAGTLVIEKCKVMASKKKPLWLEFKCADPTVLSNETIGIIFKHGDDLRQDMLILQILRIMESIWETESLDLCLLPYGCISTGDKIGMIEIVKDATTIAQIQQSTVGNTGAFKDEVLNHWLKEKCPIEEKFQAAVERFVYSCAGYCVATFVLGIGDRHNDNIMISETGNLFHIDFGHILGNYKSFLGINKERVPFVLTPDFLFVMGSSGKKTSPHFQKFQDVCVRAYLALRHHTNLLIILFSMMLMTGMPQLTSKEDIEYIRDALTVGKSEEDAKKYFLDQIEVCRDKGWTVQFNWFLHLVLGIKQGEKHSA
PI3K δ, sequence (O00329 whole entry): as the sequence (O00329 whole entry) above
PI3K δ, sequence (P27986 whole entry partner): as the sequence (P27986 whole entry partner) above

SMILES: C/C=C/c1cccc2cc([C@H](C)NC(=O)c3c(N)nn4cccnc34)n(-c3ccccc3)c(=O)c12 [Compound 70]
- PI3K δ/PI3K γ IC50 (selectivity) (PI3K γ): X (key: V = 0.1 to 1; W = > 1 to <10; X = 10 to <50; Y = 50 to <850)
- RAJI δ/Raw264.7 γ IC50 (selectivity) [1]: X (key: V = 0.1 to 1; W = > 1 to <10; X = 10 to <50; Y = 50 to <850)

SMILES: O=P1(N(CCCl)CCCl)NCCCO1 (stereo not shown) [cyclophosphamide, reference compound]
- Tumor growth, LLC tumor brei model (LLC tumor): reduced tumor growth by about the same amount

- PI3K δ/PI3K γ IC50 (selectivity) (PI3K γ; ratio of biochemical IC50s): W (W = > 1 to <10)
- RAJI δ/Raw264.7 γ IC50 (selectivity) ([1]; ratio of cellular IC50s): W (W = > 1 to <10)
SMILES: Cc1cnc(C(=O)N[C@@H](C)c2cc3cccc(C#Cc4cnn(C)c4)c3c(=O)n2-c2ccccc2)c(N)n1 [Compound 68]

SMILES: CC(C)n1c([C@H](C)Nc2ncnc(N)c2C#N)cc2cccc(-c3ccc(=O)n(C)c3)c2c1=O [Compound AA]
- effect on IFN-γ (human T cells): highly selective inhibitor
- Neutrophil in bronchoalveolar lavage fluid (BALF) [2]: reduced neutrophil
- Free Plasma Conc (nM) […] ([3]; approximately 4 hours post LPS challenge): BLQ
- Free Plasma Conc (nM) 1.5 h ([3]; at time of LPS challenge): BLQ
- Inhibition of CXCL12-induced p-AKT [4]: did not significantly inhibit
- Inhibition of CXCL12-induced p-AKT [5]: did not significantly inhibit

- Stability in serum [6]: good stability in serum
SMILES: Cc1c(C#Cc2cccc3nc([C@H](C)NC(=O)c4c(N)nn5cccnc45)n(-c4ccccc4)c(=O)c23)cnn1C [Compound 88, (S)-2-amino-N-(1-(5-((1,5-dimethyl-1H-pyrazol-4-yl)ethynyl)-4-oxo-3-phenyl-3,4-dihydroquinazolin-2-yl)ethyl)pyrazolo[1,5-a]pyrimidine-3-carboxamide]

SMILES: C[C@H](NC(=O)c1c(N)nn2cccnc12)c1nc2cccc(C#CC(C)(C)C)c2c(=O)n1-c1ccccc1 [Compound 3]
- IC50 (PI3K α): 5 to 10 µM
- IC50 (PI3K β): 5 to 10 µM
- IC50 (PI3K δ): 5 to 10 µM
- IC50 (PI3K γ): 1 to 5 µM
- PI3K δ/PI3K γ IC50 (selectivity) (PI3K γ; ratio of biochemical IC50s): W (W = > 1 to <10)
- IC50 (PI3K-δ in RAJI cells): 1 to 10 µM
- RAJI δ/Raw264.7 γ IC50 (selectivity) [1]: X (key: V = 0.1 to 1; W = > 1 to <10; X = 10 to <50; Y = 50 to <850)
- IC50 ([1]; phospho-AKT): 0.05 to 0.1 µM

SMILES: C[C@H](NC(=O)c1c(N)nn2cccnc12)c1cc2cccc(C#CC3CC3)c2c(=O)n1-c1ccccc1 [Compound 9]
- PI3K δ/PI3K γ IC50 (selectivity) (PI3K γ): X (key: V = 0.1 to 1; W = > 1 to <10; X = 10 to <50; Y = 50 to <850)
- RAJI δ/Raw264.7 γ IC50 (selectivity) [1]: Y (key: V = 0.1 to 1; W = > 1 to <10; X = 10 to <50; Y = 50 to <850)
